The values below are quoted from earlier work in patent publication US6335036B1, “Granular pharmaceutical preparation of ebselen” (Daiichi Pharmaceutical Co., Ltd., priority 1996, dated 2002).

For this data set the following is noted: known property, background art.

In the case of `O=c1c2ccccc2[se]n1-c1ccccc1` [Ebselen, 2-phenyl-1,2-benzisoselenazol-3(2H)-one], the Solubility in water entry is recorded as “slightly soluble in water”.
